Tests used:
Cbl-b [1] = target: T1, Cbl-b (Homo sapiens, UniProt Q13191); experiment: Cbl-b inhibition assay (Cbl-b activity assay, FRET, Biological Example 1; 100 mM NaCl, 60 nM Src kinase); type: biochemical; details: upper bound stated in text lists; read-out: IC50 values in the Cbl-b inhibition assay of Biological Example 1
How it was run: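 FRET read-out: loss of signal marks inhibition. Mix = biotin-Avi-Cbl-b (N-term), Src kinase, UbcH5B-Ub(Bodipy-FL, irreversible conjugate), streptavidin-Tb, assay buffer.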

T-cell [2] = experiment: IL-2 secretion from T-cells co-stimulated with anti-CD3 and anti-CD28 antibody (Biological Example 2); type: cell-based, human; details: Homo sapiens, T-cell, read-out: IL-2 secretion Anti-CD3/Anti-CD28 stimulation; for fold induction at 0.3 µM: 0.3 μM Cbl-b inhibitor; for fold induction at 1 µM: 1 μM Cbl-b inhibitor; for fold induction at 4 µM: 4 μM Cbl-b inhibitor
From the text: (§1) Methods for experimentally determining increased T-cell activation, increased T-cell proliferation, decreased T-cell exhaustion, and/or decreased T-cell tolerance are well known in the art.
(§2) Modulation of activity of an immune cell, such as a T-cell, a B cell or a NK cell can be measured by determining a baseline value for a parameter of interest (e.g., cytokine secretion). […] A reference value then is obtained for T-cell activation after contacting or administering said Cbl-b inhibitor. The reference value is compared to the baseline value in order to determine the amount of T-cell activation due to contact or administration of the Cbl-b inhibitor or composition thereof. […] Immune cell activation can be assessed by measuring biological markers of activation such as increased cytokine secretion, increased cell surface expression of activation markers (e.g., cell surface markers), or increased phosphorylation of proteins in a downstream signaling pathway. The fold over baseline value that indicates immune cell activation can be determined for the parameter being tested and the conditions under which the immune cell were treated. For example, for measuring T-cell activation, a baseline value can be obtained from T-cells stimulated with anti-CD3 antibody in combination with anti-CD28 antibody, wherein the cells are not incubated with a Cbl-b inhibitor. […] A positive response for immune cell activation can then be determined by the obtained reference value. […]

T-cell [3] = experiment: IL-2 secretion from T-cells stimulated with anti-CD3 antibody alone (Biological Example 2); type: cell-based, human; details: T-cell, read-out: IL-2 secretion Anti-CD3 stimulation; for fold induction at 1 µM: 1 μM Cbl-b inhibitor; for fold induction at 8 µM: 8 μM Cbl-b inhibitor
From the text: as §1
(§3) Modulation of activity of an immune cell, such as a T-cell, a B cell or a NK cell can be measured by determining a baseline value for a parameter of interest (e.g., cytokine secretion). […] A reference value then is obtained for T-cell activation after contacting or administering said Cbl-b inhibitor. The reference value is compared to the baseline value in order to determine the amount of T-cell activation due to contact or administration of the Cbl-b inhibitor or composition thereof. […] Immune cell activation can be assessed by measuring biological markers of activation such as increased cytokine secretion, increased cell surface expression of activation markers (e.g., cell surface markers), or increased phosphorylation of proteins in a downstream signaling pathway. The fold over baseline value that indicates immune cell activation can be determined for the parameter being tested and the conditions under which the immune cell were treated. For example, for measuring T-cell activation, a baseline value can be obtained from T-cells stimulated with anti-CD3 antibody in combination with anti-CD28 antibody, wherein the cells are not incubated with a Cbl-b inhibitor. […] A positive response for immune cell activation can then be determined by the obtained reference value.
(§4) In some embodiments, a baseline value can be obtained from T-cells stimulated with anti-CD3 antibody alone, wherein the cells are not incubated with a Cbl-b inhibitor. In some embodiments, a positive response for T-cell activation as measured by cytokine secretion (e.g., IL-2 secretion) by T-cells stimulated with anti-CD3 antibody alone in the presence of a Cbl-b inhibitor is at least 0.1-fold over the baseline value for cytokine secretion (e.g., IL-2 secretion) obtained from T-cells stimulated with anti-CD3 antibody alone in the absence of a Cbl-b inhibitor. In some embodiments, a positive response for T-cell activation as measured by surface marker expression (e.g., CD25 surface marker staining) by T-cells stimulated with anti-CD3 antibody alone in the presence of a Cbl-b inhibitor is at least 0.6-fold over the baseline value for surface marker expression (e.g., CD25 surface marker staining) obtained from T-cells stimulated with anti-CD3 antibody alone in the absence of a Cbl-b inhibitor.

T-cell [4] = experiment: CD25 cell surface staining on T-cells co-stimulated with anti-CD3 and anti-CD28 antibody (Biological Example 2); type: cell-based, human; details: Homo sapiens, T-cell, read-out: CD25 staining Anti-CD3/Anti-CD28 stimulation; for fold induction at 0.3 µM: 0.3 μM Cbl-b inhibitor; for fold induction at 1 µM: 1 μM Cbl-b inhibitor; for fold induction at 4 µM: 4 μM Cbl-b inhibitor
From the text: as §1, §2

T-cell [5] = experiment: CD25 cell surface staining on T-cells stimulated with anti-CD3 antibody alone (Biological Example 2); type: cell-based, human; details: T-cell, read-out: CD25 staining Anti-CD3 stimulation; for fold induction at 1 µM: 1 μM Cbl-b inhibitor; for fold induction at 8 µM: 8 μM Cbl-b inhibitor
From the text: as §1, §3, §4

Cbl-b [6] = target: T1, Cbl-b; experiment: Cbl-b activity assay (Cbl-b inhibition assay), TR-FRET of Cbl-b interaction with UbcH5B-Ub; type: biochemical; details: assay buffer with 100 mM NaCl, 60 nM Src kinase; read-out: Cbl-b activity IC50
How it was run: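 TR-FRET readout of Cbl-b binding to Bodipy-fluorescein N-terminally labeled Ub conjugated to UbcH5B C85K, measured with compound present. After compound incubation, 60 nM Src kinase with 1 mM ATP and 5 mM MgCl2 (final) was added for 1.5 h, then a further 1 h incubation; asterisked values used 50 mM NaCl buffer and 30 nM Src.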

[7] = fold change over baseline (anti-CD3/anti-CD28 stimulated T-cells without inhibitor)
[8] = Homo sapiens, fold change over baseline (anti-CD3/anti-CD28 stimulated T-cells without inhibitor)
[9] = fold change over baseline, primary human total T-cells

T1 sequence (Q13191 36-427): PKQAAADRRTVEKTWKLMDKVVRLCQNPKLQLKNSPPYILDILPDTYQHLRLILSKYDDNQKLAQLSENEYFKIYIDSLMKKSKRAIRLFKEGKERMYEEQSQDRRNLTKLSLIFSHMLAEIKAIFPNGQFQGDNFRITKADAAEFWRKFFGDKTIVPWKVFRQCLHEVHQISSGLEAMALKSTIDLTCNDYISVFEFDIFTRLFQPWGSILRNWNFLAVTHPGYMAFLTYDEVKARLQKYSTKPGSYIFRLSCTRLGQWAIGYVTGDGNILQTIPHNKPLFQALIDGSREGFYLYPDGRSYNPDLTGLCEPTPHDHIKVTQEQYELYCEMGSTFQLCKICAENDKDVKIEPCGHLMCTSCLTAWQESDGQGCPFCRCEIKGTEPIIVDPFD

## Cn1cnnc1CC1(c2cccc(N3Cc4c(cc(CN5Cc6cccc(F)c6C5)cc4C(F)(F)F)C3=O)c2)COC1 [Example 653, 6-((4-fluoroisoindolin-2-yl)methyl)-2-(3-(3-((4-methyl-4H-1,2,4-triazol-3-yl)methyl)oxetan-3-yl)phenyl)-4-(trifluoromethyl)isoindolin-1-one]
Cbl-b [1]
  IC50: ≤ 100 nM
T-cell [2]; [7]
  fold induction at 0.3 µM: 2.51 to 5
  fold induction at 1 µM: > 7.5
T-cell [3]; [8]
  fold induction at 1 µM: > 0.201
T-cell [4]; [7]
  fold induction at 0.3 µM: 1.31 to 1.5
  fold induction at 1 µM: 1.31 to 1.5
T-cell [5]; [8]
  fold induction at 1 µM: > 1
Cbl-b [6]
  IC50: < 100 nM

## Cn1cnnc1[C@H](F)C1(c2cccc(N3Cc4c(cc(CN5C6CCC5CC6)cc4C(F)(F)F)C3=O)c2)COC1 [Example 671b, (R)-6-((7-azabicyclo[2.2.1]heptan-7-yl)methyl)-2-(3-(3-(fluoro(4-methyl-4H-1,2,4-triazol-3-yl)methyl)oxetan-3-yl)phenyl)-4-(trifluoromethyl)isoindolin-1-one]
Cbl-b [1]
  IC50: ≤ 100 nM
T-cell [2]; [7]
  fold induction at 0.3 µM: > 7.5
  fold induction at 1 µM: > 7.5
T-cell [3]; [8]
  fold induction at 1 µM: > 0.201
T-cell [4]; [7]
  fold induction at 0.3 µM: > 1.76
  fold induction at 1 µM: > 1.76
T-cell [5]; [8]
  fold induction at 1 µM: > 1
Cbl-b [6]
  IC50: < 100 nM

## C[C@H](Cc1nncn1C)c1cc(N[C@H]2CC[C@H]2O)nc(N2Cc3c(cccc3C(F)(F)F)C2=O)c1 [Example 689b, 2-(6-(((1S,2R)-2-hydroxycyclobutyl)amino)-4-((R)-1-(4-methyl-4H-1,2,4-triazol-3-yl)propan-2-yl)pyridin-2-yl)-4-(trifluoromethyl)isoindolin-1-one]
Cbl-b [1]
  IC50: ≤ 1000 nM
T-cell [2]; [7]
  fold induction at 0.3 µM: 1.01 to 2.5
  fold induction at 1 µM: 1.01 to 2.5
T-cell [3]; [8]
  fold induction at 1 µM: < 0.05
T-cell [4]; [7]
  fold induction at 0.3 µM: 1.01 to 1.3
  fold induction at 1 µM: 1.01 to 1.3
T-cell [5]; [8]
  fold induction at 1 µM: < 0.6
Cbl-b [6]
  IC50: 301 to 1000 nM

## CC(c1cc2c(c(C3CC3)n1)CN(c1cccc(C3(Cc4nncn4C)COC3)c1)C2=O)N1CCCCC1 (stereo not drawn) [Example 587, 4-Cyclopropyl-2-(3-(3-((4-methyl-4H-1,2,4-triazol-3-yl)methyl)oxetan-3-yl)phenyl)-6-(l-(piperidin-1-yl)ethyl)-2,3-dihydro-1H-pyrrolo[3,4-c]pyridin-1-one]
Cbl-b [1]
  IC50: ≤ 100 nM
T-cell [2]; [7]
  fold induction at 0.3 µM: 5 to 7.5
  fold induction at 1 µM: > 7.5
T-cell [3]; [8]
  fold induction at 1 µM: > 0.201
T-cell [4]; [7]
  fold induction at 0.3 µM: > 1.76
  fold induction at 1 µM: > 1.76
T-cell [5]; [8]
  fold induction at 1 µM: 0.601 to 0.8
Cbl-b [6]
  IC50: < 100 nM

## CC1CN(c2cc3c(c(C(F)(F)F)c2)CN(c2cccc(C4(Cc5nncn5C)COC4)c2)C3=O)C1 [Example 607, 2-(3-(3-((4-methyl-4H-1,2,4-triazol-3-yl)methyl)oxetan-3-yl)phenyl)-6-(3-methylazetidin-1-yl)-4-(trifluoromethyl)isoindolin-1-one]
Cbl-b [1]
  IC50: ≤ 100 nM
T-cell [2]; [7]
  fold induction at 0.3 µM: 1.01 to 2.5
  fold induction at 1 µM: 2.51 to 5
T-cell [3]; [8]
  fold induction at 1 µM: 0.101 to 0.15
T-cell [4]; [7]
  fold induction at 0.3 µM: 1.01 to 1.3
  fold induction at 1 µM: 1.01 to 1.3
T-cell [5]; [8]
  fold induction at 1 µM: 0.601 to 0.8
Cbl-b [6]
  IC50: < 100 nM

## C[C@H](Sc1nncn1C)c1cccc(NC(=O)c2cc(C3(O)COC3)cc(C(F)(F)F)n2)c1 [Compound 84, (S)-4-(3-hydroxyoxetan-3-yl)-N-(3-(1-((4-methyl-4H-1,2,4-triazol-3-yl)thio)ethyl)phenyl)-6-(trifluoromethyl)picolinamide]
Cbl-b [1]
  IC50: ≤ 1000 nM
T-cell [2]; [9]
  fold induction at 0.3 µM: < 1
  fold induction at 1 µM: < 1
  fold induction at 4 µM: < 1
T-cell [3]; [9]
  fold induction at 1 µM: < 0.05
  fold induction at 8 µM: < 0.05
T-cell [4]; [9]
  fold induction at 0.3 µM: < 1
  fold induction at 1 µM: 1.01 to 1.3
  fold induction at 4 µM: 1.01 to 1.3
T-cell [5]; [9]
  fold induction at 1 µM: < 0.6
  fold induction at 8 µM: 0.601 to 0.8
Cbl-b [6]
  IC50: 301 to 1000 nM

## Cn1cnnc1[C@H](F)C1(c2cccc(N3Cc4c(cc(CN5C6CCCC5CC6)cc4C(F)(F)F)C3=O)c2)COC1 [Example 675b, 6-((8-azabicyclo[3.2.1]octan-8-yl)methyl)-2-(3-(3-((R)-fluoro(4-methyl-4H-1,2,4-triazol-3-yl)methyl)oxetan-3-yl)phenyl)-4-(trifluoromethyl)isoindolin-1-one]
Cbl-b [1]
  IC50: ≤ 100 nM
T-cell [2]; [7]
  fold induction at 0.3 µM: > 7.5
  fold induction at 1 µM: > 7.5
T-cell [3]; [8]
  fold induction at 1 µM: > 0.201
T-cell [4]; [7]
  fold induction at 0.3 µM: 1.31 to 1.5
  fold induction at 1 µM: 1.31 to 1.5
T-cell [5]; [8]
  fold induction at 1 µM: > 1
Cbl-b [6]
  IC50: < 100 nM

## C[C@H](Sc1nncn1C)c1cccc(NC(=O)c2ccc3ccccc3n2)c1 [Compound 9a]
Cbl-b [1]
  IC50: ≤ 500 nM
T-cell [2]; [9]
  fold induction at 0.3 µM: 1.01 to 2.5
  fold induction at 1 µM: 1.01 to 2.5
  fold induction at 4 µM: 1.01 to 2.5
T-cell [3]; [9]
  fold induction at 1 µM: < 0.05
  fold induction at 8 µM: 0.051 to 0.1
T-cell [4]; [9]
  fold induction at 0.3 µM: 1.01 to 1.3
  fold induction at 1 µM: 1.01 to 1.3
  fold induction at 4 µM: 1.01 to 1.3
T-cell [5]; [9]
  fold induction at 1 µM: 0.601 to 0.8
  fold induction at 8 µM: 0.601 to 0.8

## CC(Sc1nncn1C)c1cccc(NC(=O)c2ccc3ccccc3n2)c1 (stereo not shown) [Compound 9, N-(3-(1-((4-Methyl-4H-1,2,4-triazol-3-yl)thio)ethyl)phenyl)quinoline-2-carboxamide]
Cbl-b [1]
  IC50: ≤ 1000 nM
T-cell [2]; [9]
  fold induction at 0.3 µM: 1.01 to 2.5
  fold induction at 1 µM: 1.01 to 2.5
  fold induction at 4 µM: 2.51 to 5
T-cell [3]; [9]
  fold induction at 1 µM: < 0.05
  fold induction at 8 µM: 0.051 to 0.1
T-cell [4]; [9]
  fold induction at 0.3 µM: < 1
  fold induction at 1 µM: < 1
  fold induction at 4 µM: 1.01 to 1.3
T-cell [5]; [9]
  fold induction at 1 µM: < 0.6
  fold induction at 8 µM: 0.601 to 0.8

— patent publication US20220324835A1 (Nurix Therapeutics, Inc., priority 2018, published 2022)
